Laboratory results: the supplement of paper PMC10307832

How the values were obtained:
Assay in all cases: relative viability (nuclei count vs DMSO), 5 days (fraction); higher = more cells survive
Crenolanib + AZD7762 = compound: CC1(COc2ccc3c(c2)ncn3-c2ccc3cccc(N4CCC(N)CC4)c3n2)COC1 [Crenolanib] + NC(=O)Nc1cc(-c2cccc(F)c2)sc1C(=O)N[C@H]1CCCNC1 [AZD7762] (partner 0.2 µM)
How it was run: (§1)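 Lung cancer cell lines in 1536-well plates were dosed by pin tool the day after seeding, either with one drug alone or with a fixed anchor-drug dose plus five library-drug doses (not always all listed) in √10 steps. After 5 days, cells were fixed and their nuclei stained in one step (final 0.05% Triton X-100, 1% formaldehyde, 1 ug/ml Hoechst), then counted on 4× images. Relative viability is the nuclei count in treated wells divided by that in vehicle wells. Values are medians of duplicate plates.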

Crenolanib + Palbociclib = compound: CC1(COc2ccc3c(c2)ncn3-c2ccc3cccc(N4CCC(N)CC4)c3n2)COC1 [Crenolanib] + CC(=O)c1c(C)c2cnc(Nc3ccc(N4CCNCC4)cn3)nc2n(C2CCCC2)c1=O [Palbociclib] (partner 0.5 µM)
How it was run: as §1

Tivantinib + Decitabine = compound: O=C1NC(=O)[C@@H](c2cn3c4c(cccc24)CCC3)[C@@H]1c1c[nH]c2ccccc12 [Tivantinib] + Nc1ncn([C@H]2C[C@H](O)[C@@H](CO)O2)c(=O)n1 [Decitabine] (partner 2 µM)
How it was run: as §1

Tivantinib + Crizotinib = compound: O=C1NC(=O)[C@@H](c2cn3c4c(cccc24)CCC3)[C@@H]1c1c[nH]c2ccccc12 [Tivantinib] + C[C@@H](Oc1cc(-c2cnn(C3CCNCC3)c2)cnc1N)c1c(Cl)ccc(F)c1Cl [Crizotinib] (partner 1 µM)
How it was run: as §1

Cell Line | relative viability (Crenolanib + AZD7762; first compound 0.01 µM) | relative viability (Crenolanib + AZD7762; first compound 0.03162 µM) | relative viability (Crenolanib + AZD7762; first compound 0.1 µM) | relative viability (Crenolanib + AZD7762; first compound 0.3162 µM) | relative viability (Crenolanib + AZD7762; first compound 1 µM) | relative viability (Crenolanib + Palbociclib; first compound 0.01 µM) | relative viability (Crenolanib + Palbociclib; first compound 0.03162 µM) | relative viability (Crenolanib + Palbociclib; first compound 0.1 µM) | relative viability (Crenolanib + Palbociclib; first compound 0.3162 µM) | relative viability (Crenolanib + Palbociclib; first compound 1 µM) | relative viability (Tivantinib + Decitabine; first compound 0.01 µM) | relative viability (Tivantinib + Decitabine; first compound 0.03162 µM) | relative viability (Tivantinib + Decitabine; first compound 0.1 µM) | relative viability (Tivantinib + Decitabine; first compound 0.3162 µM) | relative viability (Tivantinib + Crizotinib; first compound 0.01 µM) | relative viability (Tivantinib + Crizotinib; first compound 0.03162 µM) | relative viability (Tivantinib + Crizotinib; first compound 0.1 µM) | relative viability (Tivantinib + Crizotinib; first compound 0.3162 µM)
NCI-H522 | 1.03 | 0.853 | 0.773 | 0.88 | 0.836 | 1.15 | 1.06 | 0.963 | 0.881 | 0.971 | 0.715 | 0.551 | 0.633 | 0.535 | – | – | – | –
HCC-366 | 0.689 | 0.327 | 0.333 | 0.363 | 0.474 | 0.458 | 0.381 | 0.416 | 0.46 | 0.434 | 0.349 | 0.289 | 0.324 | 0.301 | 0.641 | 0.559 | 0.43 | 0.672
A-427 | 0.778 | – | 0.726 | 0.802 | 0.853 | 0.542 | – | 0.554 | 0.569 | 0.51 | 0.602 | 0.579 | 0.508 | 0.518 | 0.893 | 1.02 | 0.821 | 0.859
NCI-H23 | 0.273 | 0.309 | 0.244 | 0.268 | 0.276 | 0.588 | 0.516 | 0.454 | 0.539 | 0.449 | 0.333 | 0.294 | 0.31 | 0.318 | 0.511 | 0.615 | 0.512 | 0.416
NCI-H1755 | 0.423 | 0.468 | 0.362 | 0.529 | 0.484 | 0.466 | 0.443 | 0.46 | 0.454 | 0.473 | 0.727 | 0.67 | 0.725 | 0.765 | 0.892 | 0.878 | 0.793 | 0.92
EPLC-272H | 0.207 | 0.238 | 0.376 | 0.289 | 0.251 | 0.336 | 0.299 | 0.305 | 0.339 | 0.313 | 0.389 | 0.331 | 0.383 | 0.31 | 1.04 | 0.963 | 0.785 | 0.82
PC-3 [JPC-3] | 0.761 | – | 0.832 | 0.78 | 0.752 | 0.563 | – | 0.543 | 0.534 | 0.568 | 0.766 | 0.798 | 0.839 | 0.6 | 1.03 | 1.05 | 0.996 | 0.759
NCI-H1975 | 0.741 | 0.732 | 0.629 | 0.639 | 0.712 | 0.623 | 0.575 | 0.498 | 0.568 | 0.555 | 0.446 | 0.395 | 0.358 | 0.34 | 0.938 | 0.929 | 0.924 | 1.05
NCI-H1703 | 0.143 | 0.131 | 0.114 | 0.116 | 0.113 | – | – | – | – | – | – | – | – | – | 0.747 | 1.01 | 0.535 | 0.255
HCC-44 | 1.05 | 0.955 | 1.01 | 1.07 | 0.973 | 1.02 | 0.897 | 0.939 | 0.994 | 0.921 | 0.988 | 0.987 | 0.971 | 1.09 | 0.766 | 0.915 | 0.773 | 0.787
SK-MES-1 | – | – | – | – | – | 0.335 | 0.32 | 0.31 | 0.314 | 0.34 | 0.299 | 0.351 | – | 0.337 | 0.984 | 1.06 | 0.89 | 0.739
NCI-H727 | 0.702 | 0.445 | 0.546 | 0.671 | 0.587 | 0.72 | 0.676 | 0.678 | 0.646 | 0.699 | 0.748 | 0.924 | 0.882 | – | 0.764 | 0.96 | 0.88 | –
RERF-LC-KJ | 1.19 | 0.739 | 0.896 | 0.894 | 1.04 | 1.13 | 1.03 | 1.03 | 1.1 | 1.05 | 0.802 | 0.632 | 0.63 | 0.622 | 0.831 | 0.886 | 0.852 | 0.831
Calu-6 | – | – | – | – | – | – | – | – | – | – | – | – | – | – | 0.795 | 0.799 | 0.665 | 0.826
LCLC-103H | 0.758 | 0.761 | 0.714 | 0.759 | 0.702 | 0.541 | 0.441 | 0.465 | 0.447 | 0.492 | 0.658 | 0.762 | 0.731 | 0.708 | 0.996 | 1.04 | 1.05 | 0.941
CAL-12T | 0.778 | 0.553 | 0.641 | 0.634 | 0.799 | 0.423 | 0.344 | 0.411 | 0.457 | 0.41 | – | – | – | – | 0.711 | 0.774 | 0.714 | 0.36
SK-LU-1 | – | – | – | – | – | 0.368 | 0.394 | 0.328 | 0.412 | 0.333 | 0.711 | 0.679 | 0.593 | 0.555 | 0.95 | 1.01 | 0.872 | 0.716
NCI-H1651 | 0.49 | 0.399 | 0.434 | 0.472 | 0.558 | 0.531 | 0.518 | 0.516 | 0.522 | 0.495 | 0.592 | 0.659 | 0.608 | 0.583 | 0.893 | 0.828 | 0.867 | 0.762
BEN | 0.684 | 0.612 | 0.704 | 0.735 | 0.71 | 0.464 | 0.482 | 0.48 | 0.524 | 0.497 | 0.755 | 0.69 | 0.631 | 0.796 | 0.897 | 0.72 | 0.672 | 0.681
EMC-BAC-2 | 1.1 | – | 1.1 | 1.25 | 1.07 | 0.525 | – | 0.551 | 0.486 | 0.51 | 1.03 | 0.981 | 0.941 | 0.965 | 0.833 | 0.728 | 0.751 | 0.657
